Source: ChEMBL document CHEMBL5365482, “Rational Design of Sulfonyl-γ-AApeptides as Highly Potent HIV-1 Fusion Inhibitors with Broad-Spectrum Activity” (J Med Chem, 2023)

Tests used:
[1] = Cytotoxicity against human MT2 cells assessed as inhibition of cell growth measured after 3 days by CCK8 assay; type: toxicity, cell-based; conditions: time 3 day
[2] = system: Human immunodeficiency virus 1; assay: Antiviral activity against HIV1 IIIB infected in human MT2 cells assessed as inhibition of viral growth incubated for 30 mins by ELISA assay; type: functional, organism-based; conditions: Human immunodeficiency virus 1, IIIB, MT2, 0.5 h
[3] = Selectivity index, ratio of CC50 for human MT2 cells to IC50 for HIV1 IIIB infected in human MT2 cells; type: toxicity, cell-based; conditions: read-out: Ratio CC50/IC50

Compound	CC50 at 72 h [1]	IC50 [2]	selectivity ratio [3]
CC[C@@H](C)[C@@H](CN(CC(=O)N[C@@H](CCC(=O)O)CN(CC(=O)N[C@@H](CC(C)C)CN(CC(N)=O)S(=O)(=O)CC(C)C)S(=O)(=O)c1ccc(C(=O)O)cc1)S(=O)(=O)CC(C)C)NC(=O)CN(C[C@H](CCCCN)NC(=O)CN(C[C@H](Cc1ccc(O)cc1)NC(=O)CN(C[C@H](CCC(=O)O)NC(=O)CN(C[C@@H](NC(=O)CN(C[C@H](CCCCN)NC(=O)CN(C[C@H](Cc1c[nH]c2ccccc12)NC(=O)CN(C[C@H](CCC(=O)O)NC(=O)CN(C[C@H](Cc1c[nH]c2ccccc12)NC(=O)CN(C[C@H](CCSC)NC(C)=O)S(=O)(=O)CC(C)C)S(=O)(=O)CC(C)C)S(=O)(=O)c1ccc(C(=O)O)cc1)S(=O)(=O)CC(C)C)S(=O)(=O)CCN)[C@H](C)CC)S(=O)(=O)CC(C)C)S(C)(=O)=O)S(=O)(=O)CC(C)C)S(=O)(=O)CCN	> 40 µM	> 40 µM	
CC[C@@H](C)[C@@H](CN(CC(=O)N[C@@H](CCC(=O)O)CN(CC(=O)N[C@@H](CC(C)C)CN(CC(N)=O)S(=O)(=O)CC(C)C)S(C)(=O)=O)S(=O)(=O)CC(C)C)NC(=O)CN(C[C@H](CCCCN)NC(=O)CN(C[C@H](Cc1ccc(O)cc1)NC(=O)CN(C[C@H](CCC(=O)O)NC(=O)CN(C[C@@H](NC(=O)CN(C[C@H](CCCCN)NC(=O)CN(C[C@H](Cc1c[nH]c2ccccc12)NC(=O)CN(C[C@H](CCC(=O)O)NC(=O)CN(C[C@H](Cc1c[nH]c2ccccc12)NC(=O)CN(C[C@H](CCSC)NC(C)=O)S(=O)(=O)CC(C)C)S(=O)(=O)CC(C)C)S(=O)(=O)c1ccc(C(=O)O)cc1)S(=O)(=O)CC(C)C)S(=O)(=O)CCN)[C@H](C)CC)S(=O)(=O)CC(C)C)S(=O)(=O)c1ccc(C(=O)O)cc1)S(=O)(=O)CC(C)C)S(=O)(=O)CCN	> 40 µM	> 40 µM	
CC[C@@H](C)[C@@H](CN(CC(=O)N[C@@H](CCC(=O)O)CN(CC(=O)N[C@H](CO)CN(CC(=O)N[C@@H](CCCCN)CN(CC(=O)N[C@H](CN(CC(=O)N[C@@H](CCC(=O)O)CN(CC(=O)N[C@@H](CC(C)C)CN(CC(N)=O)S(=O)(=O)CC(C)C)S(=O)(=O)c1ccc(C(=O)O)cc1)S(=O)(=O)CC(C)C)[C@H](C)CC)S(=O)(=O)CCN)S(=O)(=O)CC(C)C)S(=O)(=O)c1ccc(C(=O)O)cc1)S(=O)(=O)CC(C)C)NC(=O)CN(C[C@@H](CCCCN)NC(=O)CN(C[C@H](Cc1c[nH]c2ccccc12)NC(=O)CN(C[C@H](CCC(=O)O)NC(=O)CN(C[C@H](Cc1c[nH]c2ccccc12)NC(=O)CN(C[C@H](CCSC)NC(C)=O)S(=O)(=O)CC(C)C)S(=O)(=O)CC(C)C)S(=O)(=O)c1ccc(C(=O)O)cc1)S(=O)(=O)CC(C)C)S(=O)(=O)CCN	> 100 µM	> 100 µM	
CC[C@@H](C)[C@@H](CN(CC(=O)N[C@@H](CCC(=O)O)CN(CC(=O)N[C@@H](CC(C)C)CN(CC(N)=O)S(=O)(=O)CC(C)C)S(=O)(=O)c1ccc(C(=O)O)cc1)S(=O)(=O)CC(C)C)NC(=O)CN(C[C@H](CCCCN)NC(=O)CN(C[C@H](Cc1ccc(O)cc1)NC(=O)CN(C[C@H](CCC(=O)O)NC(=O)CN(C[C@@H](NC(=O)CN(C[C@H](CCCCN)NC(=O)CN(C[C@H](Cc1c[nH]c2ccccc12)NC(=O)CN(C[C@H](CCC(=O)O)NC(=O)CN(C[C@H](Cc1c[nH]c2ccccc12)NC(C)=O)S(=O)(=O)CC(C)C)S(=O)(=O)c1ccc(C(=O)O)cc1)S(=O)(=O)CC(C)C)S(=O)(=O)CCN)[C@H](C)CC)S(=O)(=O)CC(C)C)S(=O)(=O)c1ccc(C(=O)O)cc1)S(=O)(=O)CC(C)C)S(=O)(=O)CCN	> 100 µM	> 100 µM	
CC[C@@H](C)[C@@H](CN(CC(=O)N[C@@H](CCC(=O)O)CN(CC(=O)N[C@@H](CC(C)C)CN(CC(=O)N[C@@H](CCCCN)CN(CC(=O)N[C@@H](CC(C)C)CN(CC(N)=O)S(=O)(=O)CC(C)C)S(=O)(=O)CCN)S(=O)(=O)CC(C)C)S(=O)(=O)c1ccc(C(=O)O)cc1)S(=O)(=O)CC(C)C)NC(=O)CN(C[C@H](CCCCN)NC(=O)CN(C[C@H](Cc1ccc(O)cc1)NC(=O)CN(C[C@H](CCC(=O)O)NC(=O)CN(C[C@@H](NC(=O)CN(C[C@H](CCCCN)NC(=O)CN(C[C@H](Cc1c[nH]c2ccccc12)NC(=O)CN(C[C@H](CCC(=O)O)NC(=O)CN(C[C@H](Cc1c[nH]c2ccccc12)NC(=O)CN(C[C@H](CCSC)NC(C)=O)S(=O)(=O)c1ccc(OC)cc1)S(=O)(=O)CC(C)C)S(=O)(=O)c1ccc(C(=O)O)cc1)S(=O)(=O)CC(C)C)S(=O)(=O)CCN)[C@H](C)CC)S(=O)(=O)CC(C)C)S(=O)(=O)c1ccc(C(=O)O)cc1)S(=O)(=O)CC(C)C)S(=O)(=O)CCN	> 100 µM	15.7 µM	> 6.3
CC[C@@H](C)[C@@H](CN(CC(=O)N[C@@H](CCC(=O)O)CN(CC(=O)N[C@@H](CC(C)C)CN(CC(N)=O)S(=O)(=O)CC(C)C)S(=O)(=O)c1ccc(C(=O)O)cc1)S(=O)(=O)CC(C)C)NC(=O)CN(C[C@H](CCCCN)NC(=O)CN(C[C@H](Cc1ccc(O)cc1)NC(=O)CN(C[C@H](CCC(=O)O)NC(=O)CN(C[C@@H](NC(=O)CN(C[C@H](CCCCN)NC(=O)CN(C[C@H](Cc1c[nH]c2ccccc12)NC(=O)CN(C[C@H](CCC(=O)O)NC(=O)CN(C[C@H](Cc1c[nH]c2ccccc12)NC(=O)CN(C[C@H](CCSC)NC(C)=O)S(C)(=O)=O)S(=O)(=O)CC(C)C)S(=O)(=O)c1ccc(C(=O)O)cc1)S(=O)(=O)CC(C)C)S(=O)(=O)CCN)[C@H](C)CC)S(=O)(=O)CC(C)C)S(=O)(=O)c1ccc(C(=O)O)cc1)S(=O)(=O)CC(C)C)S(=O)(=O)CCN	> 100 µM	38.9 µM	> 2.5
CC[C@@H](C)[C@@H](CN(CC(=O)N[C@@H](CCC(=O)O)CN(CC(=O)N[C@@H](Cc1ccc(O)cc1)CN(CC(=O)N[C@@H](CCCCN)CN(CC(=O)N[C@H](CN(CC(=O)N[C@@H](CCC(=O)O)CN(CC(=O)N[C@@H](CC(C)C)CN(CC(N)=O)S(=O)(=O)CC(C)C)S(=O)(=O)c1ccc(C(=O)O)cc1)S(=O)(=O)CC(C)C)[C@H](C)CC)S(=O)(=O)CCN)S(=O)(=O)CC(C)C)S(=O)(=O)c1ccc(C(=O)O)cc1)S(=O)(=O)CC(C)C)NC(=O)CN(C[C@H](CCCCN)NC(=O)CN(C[C@@H](Cc1c[nH]c2ccccc12)NC(=O)CN(C[C@H](CCC(=O)O)NC(=O)CN(C[C@H](Cc1c[nH]c2ccccc12)NC(=O)CN(C[C@H](CCSC)NC(C)=O)S(=O)(=O)CC(C)C)S(=O)(=O)CC(C)C)S(C)(=O)=O)S(=O)(=O)CC(C)C)S(=O)(=O)CCN	> 40 µM	> 40 µM	
CC[C@@H](C)[C@@H](CN(CC(=O)N[C@@H](CCC(=O)O)CN(CC(=O)N[C@@H](CC(C)C)CN(CC(=O)N[C@@H](CCCCN)CN(CC(=O)N[C@@H](C)CN(CC(=O)N[C@@H](CCC(=O)O)CN(CC(=O)N[C@@H](CCCCN)CN(CC(=O)N[C@@H](CCCCN)CN(CC(=O)N[C@@H](CCC(=O)O)CN(CC(=O)N[C@@H](CCC(=O)O)CN(CC(=O)N[C@@H](CC(C)C)CN(CC(=O)N[C@@H](CCCCN)CN(CC(N)=O)S(=O)(=O)CCN)S(=O)(=O)CC(C)C)S(=O)(=O)c1ccc(C(=O)O)cc1)S(=O)(=O)c1ccc(C(=O)O)cc1)S(=O)(=O)CCN)S(=O)(=O)CCN)S(=O)(=O)c1ccc(C(=O)O)cc1)S(C)(=O)=O)S(=O)(=O)CCN)S(=O)(=O)CC(C)C)S(=O)(=O)c1ccc(C(=O)O)cc1)S(=O)(=O)CC(C)C)NC(C)=O	> 40 µM	> 40 µM	
CC[C@H](C)[C@H](NC(=O)[C@H](CC(C)C)NC(=O)[C@H](CCC(=O)O)NC(=O)[C@H](CCC(=O)O)NC(=O)[C@@H](NC(=O)[C@H](CCCCN)NC(=O)[C@H](CCCCN)NC(=O)[C@@H](NC(=O)[C@H](Cc1ccc(O)cc1)NC(=O)[C@H](CCC(=O)O)NC(=O)[C@H](CCC(=O)O)NC(=O)[C@@H](NC(=O)[C@H](CCCCN)NC(=O)[C@H](CCCCN)NC(=O)[C@H](CC(=O)O)NC(=O)[C@H](Cc1cc2ccccc2[nH]1)NC(=O)[C@H](CCC(=O)O)NC(=O)[C@H](CCC(=O)O)NC(=O)[C@H](Cc1cc2ccccc2[nH]1)NC(=O)[C@@H](NC(=O)[C@H](CCSC)NC(C)=O)[C@@H](C)O)[C@@H](C)CC)[C@H](C)O)[C@@H](C)CC)C(=O)N[C@@H](CCCCN)C(=O)N[C@@H](CCCCN)C(=O)N[C@@H](CO)C(N)=O		0.001 µM	
CC[C@@H](C)[C@@H](CN(CC(=O)N[C@@H](CCC(=O)O)CN(CC(=O)N[C@@H](CC(C)C)CN(CC(N)=O)S(=O)(=O)CC(C)C)S(C)(=O)=O)S(=O)(=O)CC(C)C)NC(=O)CN(C[C@H](CCCCN)NC(=O)CN(C[C@H](Cc1ccc(O)cc1)NC(=O)CN(C[C@H](CCC(=O)O)NC(=O)CN(C[C@@H](NC(=O)CN(C[C@H](CCCCN)NC(=O)CN(C[C@H](Cc1c[nH]c2ccccc12)NC(=O)CN(C[C@@H](CCC(=O)O)NC(=O)CN(C[C@H](Cc1c[nH]c2ccccc12)NC(=O)CN(C[C@H](CCSC)NC(C)=O)S(=O)(=O)CC(C)C)S(=O)(=O)CC(C)C)S(C)(=O)=O)S(=O)(=O)CC(C)C)S(=O)(=O)CCN)[C@H](C)CC)S(=O)(=O)CC(C)C)S(C)(=O)=O)S(=O)(=O)CC(C)C)S(=O)(=O)CCN	> 100 µM	> 100 µM	
CC[C@@H](C)[C@@H](CN(CC(=O)N[C@@H](CCC(=O)O)CN(CC(=O)N[C@@H](CC(C)C)CN(CC(N)=O)S(=O)(=O)CC(C)C)S(=O)(=O)c1ccc(C(=O)O)cc1)S(=O)(=O)CC(C)C)NC(=O)CN(C[C@H](CCCCN)NC(=O)CN(C[C@H](Cc1ccc(O)cc1)NC(=O)CN(C[C@H](CCC(=O)O)NC(=O)CN(C[C@@H](NC(=O)CN(C[C@H](CCCCN)NC(=O)CN(C[C@H](Cc1c[nH]c2ccccc12)NC(=O)CN(C[C@H](CCC(=O)O)NC(=O)CN(C[C@H](Cc1c[nH]c2ccccc12)NC(=O)CN(C[C@H](CCSC)NC(C)=O)S(=O)(=O)CC(C)C)S(=O)(=O)CC(C)C)S(=O)(=O)c1ccc(C(=O)O)cc1)S(=O)(=O)CC(C)C)S(=O)(=O)CCN)[C@H](C)CC)S(=O)(=O)CC(C)C)S(=O)(=O)c1ccc(C(=O)O)cc1)S(C)(=O)=O)S(=O)(=O)CCN	> 100 µM	> 100 µM	
